Assay results reported in patent publication US11707511B2, “Vaccine compositions and methods of using the same” (The Board of Supervisors of Louisiana State University and …, priority 2017, dated 2023).
“Also recorded” adds a separate entry of the source.

Tests used:
C. albicans = test: Active immunization with peptide-pulsed dendritic cells, disseminated candidiasis caused by C. albicans in mice; format: in vivo, Candida albicans; details: for protection against disseminated candidiasis caused by C. albicans: FIG. 2, antigen-pulsed DC vaccine without CFA; for CFUs in kidneys as compared to controls: FIG. 2 B and D
Experimental: (§1) Active Immunizations with peptide pulsed dendritic cells. […] It allows us to perform rapid throughput evaluation of candidate short peptides. When protective double universal peptide conjugate(s) become identified by this study, immunization approaches suitable for human use will be applied in further studies. All active vaccinations were conducted as previously described (6,7,9). DCs were pulsed in vitro with universal peptide as described before with minor modification by totally removing CFA for last booster (6). Briefly, DCs in culture were pulsed with the peptide antigen (1 μM) on day 6. On day 7, PGE2 (10^-7M) was added along with LPS (2 μg/ml, Sigma) for 24 h to induce DC maturation. On day 9, antigen-pulsed DCs were washed extensively and […] in 200 μl DPBS were given by intraperitoneal (i.p.) route as the priming dose to mice. The mice were boosted i.p. at day 14 and day 28 with fresh antigen-pulsed DCs without adjuvant.
Table 2 lists universal peptide vaccines that induced protection against disseminated candidiasis caused by C. albicans in mice. The universal peptide vaccines listed in Table 1 are expressed at high homology by all analyzed medically important Candida species in addition to C. albicans (see details at Table 2). By dendritic cell (DC) based immunization approach as described herein, each of the universal peptide vaccines was able to protect mice against disseminated candidiasis caused by C. albicans, with the survival rate 80-100% up to 80-120 days post challenge.
(§2) To perform rapid throughput evaluation of peptide vaccine candidates, immunizations were done by use of the similar antigen-pulsed DC based vaccine strategy with modification by totally removing CFA from vaccine formula. Fba peptide was used as positive control.

[1] = test system: C. tropicalis (ATCC 20336); test: Peptide-vaccinated mice challenged with lethal dose of C. tropicalis; format: in vivo; details: for survival: FIG. 3A, i.v. challenge 1×10^6/mouse, up to 80 days; for live fungal cells (CFU) in kidneys as compared to controls: FIG. 3B, p<0.001
Experimental: as §1
Peptide-vaccinated mice were challenged with lethal dose of live C. tropicalis cells (ATCC 20336; i.v. challenge dose: 1×10^6/mouse).

[2] = test system: C. glabrata CBS138 (ATCC 2001); test: Peptide-vaccinated, cyclophosphamide-immunosuppressed mice challenged with C. glabrata; format: in vivo; details: FIG. 4; 1×10^7 cells/mouse
Experimental: as §1
Peptide vaccinated mice were also challenged with C. glabrata, which has emerged as the second most common cause of invasive candidiasis in the US. Since C. glabrata is not lethal for wild-type mice, immunosuppression in vaccinated mice were induced by cyclophosphamide (50 mg/kg) treatment for two weeks, and then mice were challenged with live C. glabrata cells [CBS138 (ATCC 2001), 1×10^7 cells/mouse]. […] CFU experiments will be performed and completed. […]

[3] = Induction of specific anti-peptide antibody responses in immunized mice; format: in vivo; details: BALB/c mice; peptide-pulsed DC; data not shown
Excerpt: as §2
The double chimeric peptide conjugate vaccines have been tested for their abilities to induce specific anti-peptide antibodies and protective immunity against the disease caused by C. albicans. […] The enhancement in vaccine efficacy was evidenced by both increased survival and reduced or non-detectable fungal burden (colony forming units, CFUs) in kidneys of animals.

C. albicans 3153A = test: Amp B - antibody combination therapy of mice with disseminated candidiasis; format: in vivo, Candida albicans; details: BALB/c mice, Amp B 0.5 mg/kg
Experimental: Mice were then given by i.v. of 5×10e5 of C. albicans 3153A yeast cells, 8 hour later the mice received i.p. 0.5 mg Amp B/kg body weight with each mAb (E2-9, M2-4, 2D5F7 and 2B10C1). Mice without any treatment and mice treated with antifungal drug alone were used as controls. Survival curves were scored and MST were measured.

[4] = when incorporated into several peptide antigens; average; cited from earlier work
HLA-DR types = details: of the most common HLA-DR types tested to date; cited from earlier work

| Compound | protection against disseminated candidiasis caused by C. albicans (C. albicans) | CFUs in kidneys as compared to controls (C. albicans) | survival [1] [%] | live fungal cells (CFU) in kidneys as compared to controls [1] | protection against disseminated candidiasis caused by C. glabrata [2] | specific antibody responses [3] | also measured |
| --- | --- | --- | --- | --- | --- | --- | --- |
| FbaU1: putative universal Fba peptide; Table 17 equates it with Fba3 (SEQ ID NO: 36) but tested as a separate peptide (FAIPAINVTSSSTVVAALE) | good protective responses; also recorded: high degree protection | reduced or non-detectable CFUs | 100 | significantly reduced live fungal cells | high degree protection | able to induce specific antibody responses | – |
| C[C@@H]1[C@H](O)[C@@H](C)/C=C/C=C/C=C/C=C/C=C/C=C/C=C/[C@H](O[C@@H]2O[C@H](C)[C@@H](O)[C@H](N)[C@@H]2O)C[C@@H]2O[C@](O)(C[C@@H](O)C[C@@H](O)[C@H](O)CC[C@@H](O)C[C@@H](O)CC(=O)O[C@H]1C)C[C@H](O)[C@H]2C(=O)O [Amp B, amphotericin B] | – | – | – | – | – | – | therapeutic effect / survival time (C. albicans 3153A; treatment 8 hours post-infection, in words): the same susceptible to the disease as mice that received no Amp B; also recorded: no therapeutic effect; MST (mean survival times) (C. albicans 3153A; Table 16, 5×10e5 C. albicans 3153A i.v., treatment i.p. 8 hours post-infection): 14.5 ± 3.7 days |
| RGD | – | – | – | – | – | – | enhancement of antibody titers [4]: 10 times |
| AKFVAAWTLKAAA [PADRE] | – | – | – | – | – | – | HLA-DR types bound with high or intermediate affinity (HLA-DR types): 15 of 16 |
| YDQVLDLSLLFNAIP [Met6-2] | good protective responses; also recorded: high degree protection | reduced or non-detectable CFUs | 80 | significantly reduced live fungal cells | high degree protection | able to induce specific antibody responses | – |
